Measured values from article PMC5513037, “Examining the influence of specificity ligands and ATP-competitive ligands on the overall effectiveness of bivalent kinase inhibitors” (Proteome Science, 2017).

Tests used:
Assay in all cases: KAM-matrix competition in K562 lysate;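 on 0.001 uM KAM: median log10 fold change of treatment over DMSO control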;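 on 0.01 uM KAM: median log10 fold change of treatment over DMSO control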;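 on 0.1 uM KAM: median log10 fold change of treatment over DMSO control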;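 on 1 uM KAM: median log10 fold change of treatment over DMSO control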;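 on 10 uM KAM: median log10 fold change of treatment over DMSO control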
Assay type in all cases: binding
PAK4 = biological target: T1, PAK4 (Homo sapiens, UniProt O96013)
T1 construct: endogenous in cells; host or cells: K562
Method: (§1) Supplement 12953_2017_125_MOESM1_ESM.zip/MS_Supp Info.xlsx, sheet "KAM" | column: 10 uM KAM; 1 uM KAM; 0.1 uM KAM; 0.01 uM KAM; 0.001 uM KAM; RB50

EPHA2 = biological target: T2, EPHA2 (Homo sapiens, UniProt P29317);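 on 0.001 uM KAM: median log10 fold change of treatment over DMSO control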;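 on 0.01 uM KAM: median log10 fold change of treatment over DMSO control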;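 on 0.1 uM KAM: median log10 fold change of treatment over DMSO control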;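 on 1 uM KAM: median log10 fold change of treatment over DMSO control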;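 on 10 uM KAM: median log10 fold change of treatment over DMSO control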
T2 construct: endogenous in cells; host or cells: K562
Method: as §1

PLK4 = biological target: T3, PLK4 (Homo sapiens, UniProt O00444)
T3 construct: endogenous in cells; host or cells: K562
T3 sequence (O00444 1-970): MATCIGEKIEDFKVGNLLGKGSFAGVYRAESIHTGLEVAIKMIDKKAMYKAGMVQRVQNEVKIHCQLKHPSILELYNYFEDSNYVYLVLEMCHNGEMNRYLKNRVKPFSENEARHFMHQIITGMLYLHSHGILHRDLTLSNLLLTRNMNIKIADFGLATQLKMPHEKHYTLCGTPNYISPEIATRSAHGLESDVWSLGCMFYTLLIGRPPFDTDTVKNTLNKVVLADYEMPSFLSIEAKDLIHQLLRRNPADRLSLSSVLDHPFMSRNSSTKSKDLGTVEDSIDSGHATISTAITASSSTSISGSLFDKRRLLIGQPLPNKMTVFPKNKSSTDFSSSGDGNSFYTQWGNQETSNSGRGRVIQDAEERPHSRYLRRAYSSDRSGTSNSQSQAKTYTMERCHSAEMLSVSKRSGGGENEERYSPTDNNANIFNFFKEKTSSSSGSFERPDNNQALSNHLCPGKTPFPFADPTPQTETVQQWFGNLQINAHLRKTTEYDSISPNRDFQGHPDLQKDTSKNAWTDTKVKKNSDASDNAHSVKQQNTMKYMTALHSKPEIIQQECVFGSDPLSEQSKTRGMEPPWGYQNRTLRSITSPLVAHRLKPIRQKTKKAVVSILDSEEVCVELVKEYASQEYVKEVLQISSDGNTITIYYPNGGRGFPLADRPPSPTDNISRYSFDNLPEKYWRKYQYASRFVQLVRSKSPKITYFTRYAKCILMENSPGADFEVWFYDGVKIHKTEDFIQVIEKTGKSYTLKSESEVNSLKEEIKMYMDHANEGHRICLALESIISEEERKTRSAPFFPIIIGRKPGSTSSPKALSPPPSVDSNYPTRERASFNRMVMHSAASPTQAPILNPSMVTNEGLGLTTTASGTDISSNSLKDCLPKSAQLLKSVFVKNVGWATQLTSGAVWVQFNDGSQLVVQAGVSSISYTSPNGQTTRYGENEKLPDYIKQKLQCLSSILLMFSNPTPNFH
Method: as §1

FYN = biological target: T4, FYN (Homo sapiens, UniProt P06241)
T4 construct: endogenous in cells; host or cells: K562
Method: as §1

CAMK1 = biological target: T5, CAMK1 (Homo sapiens, UniProt Q14012);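 on 0.001 uM KAM: median log10 fold change of treatment over DMSO control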;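 on 0.01 uM KAM: median log10 fold change of treatment over DMSO control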;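 on 0.1 uM KAM: median log10 fold change of treatment over DMSO control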;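 on 1 uM KAM: median log10 fold change of treatment over DMSO control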;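 on 10 uM KAM: median log10 fold change of treatment over DMSO control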
T5 construct: endogenous in cells; host or cells: K562
Method: as §1

NTRK1 = biological target: T6, NTRK1 (Homo sapiens, UniProt P04629)
T6 construct: endogenous in cells; host or cells: K562
Method: as §1

RIOK2 = biological target: T7, RIOK2 (Homo sapiens, UniProt Q9BVS4)
T7 construct: endogenous in cells; host or cells: K562
Method: as §1

PKD1 = biological target: T8, PKD1 (Homo sapiens, UniProt P98161);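 on 0.001 uM KAM: median log10 fold change of treatment over DMSO control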;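 on 0.01 uM KAM: median log10 fold change of treatment over DMSO control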;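 on 0.1 uM KAM: median log10 fold change of treatment over DMSO control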;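 on 1 uM KAM: median log10 fold change of treatment over DMSO control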;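 on 10 uM KAM: median log10 fold change of treatment over DMSO control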
T8 construct: endogenous in cells; host or cells: K562
Method: as §1

STK10 = biological target: T9, STK10 (Homo sapiens, UniProt O94804)
T9 construct: endogenous in cells; host or cells: K562 cell lysate
Method: as §1

SRPK1 = biological target: T10, SRPK1 (Homo sapiens, UniProt Q96SB4);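 on 0.001 uM KAM: median log10 fold change of treatment over DMSO control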;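 on 0.01 uM KAM: median log10 fold change of treatment over DMSO control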;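 on 0.1 uM KAM: median log10 fold change of treatment over DMSO control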;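 on 1 uM KAM: median log10 fold change of treatment over DMSO control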;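 on 10 uM KAM: median log10 fold change of treatment over DMSO control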
T10 construct: endogenous in cells; host or cells: K562
Method: as §1

[1] = read-out: RB50 (the source's name)
[2] = KAM 0.001-10 uM, read-out: RB50 (the source's name)

T6 sequence (P04629 33-796): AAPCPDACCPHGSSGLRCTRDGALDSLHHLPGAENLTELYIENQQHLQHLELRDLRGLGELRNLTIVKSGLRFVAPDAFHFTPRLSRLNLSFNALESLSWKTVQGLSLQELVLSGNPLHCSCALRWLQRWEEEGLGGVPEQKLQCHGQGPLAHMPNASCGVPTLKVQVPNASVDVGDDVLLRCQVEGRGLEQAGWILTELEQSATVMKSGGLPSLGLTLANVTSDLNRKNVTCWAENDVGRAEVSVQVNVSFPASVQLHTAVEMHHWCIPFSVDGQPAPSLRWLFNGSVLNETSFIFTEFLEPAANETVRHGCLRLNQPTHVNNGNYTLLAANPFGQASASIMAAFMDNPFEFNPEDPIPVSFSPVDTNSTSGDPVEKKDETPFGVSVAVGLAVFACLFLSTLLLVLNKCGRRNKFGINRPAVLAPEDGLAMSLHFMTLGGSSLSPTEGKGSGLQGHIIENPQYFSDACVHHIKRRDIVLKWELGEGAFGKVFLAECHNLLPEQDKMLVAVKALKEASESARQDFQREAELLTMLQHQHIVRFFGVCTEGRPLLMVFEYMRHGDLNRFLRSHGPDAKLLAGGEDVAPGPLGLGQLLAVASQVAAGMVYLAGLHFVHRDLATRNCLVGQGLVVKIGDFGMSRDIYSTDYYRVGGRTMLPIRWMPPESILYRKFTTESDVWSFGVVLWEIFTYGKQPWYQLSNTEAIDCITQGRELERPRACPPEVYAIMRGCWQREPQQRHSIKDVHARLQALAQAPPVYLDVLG
T4 sequence (P06241 whole entry): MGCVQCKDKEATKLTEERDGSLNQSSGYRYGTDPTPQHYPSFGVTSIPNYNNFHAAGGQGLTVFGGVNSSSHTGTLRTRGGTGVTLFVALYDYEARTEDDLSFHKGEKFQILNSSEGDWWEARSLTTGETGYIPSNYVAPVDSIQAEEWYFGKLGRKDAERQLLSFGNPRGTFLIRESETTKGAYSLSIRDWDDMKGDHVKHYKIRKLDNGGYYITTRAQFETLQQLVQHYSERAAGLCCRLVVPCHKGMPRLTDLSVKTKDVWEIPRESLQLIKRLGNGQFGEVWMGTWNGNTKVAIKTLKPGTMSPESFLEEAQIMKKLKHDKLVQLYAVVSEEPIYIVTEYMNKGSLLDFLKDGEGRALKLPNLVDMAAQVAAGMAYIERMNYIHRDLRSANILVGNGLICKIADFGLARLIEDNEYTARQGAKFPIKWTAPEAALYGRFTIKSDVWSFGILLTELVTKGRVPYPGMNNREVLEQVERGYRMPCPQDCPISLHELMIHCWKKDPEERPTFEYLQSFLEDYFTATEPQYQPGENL
T7 sequence (Q9BVS4 whole entry): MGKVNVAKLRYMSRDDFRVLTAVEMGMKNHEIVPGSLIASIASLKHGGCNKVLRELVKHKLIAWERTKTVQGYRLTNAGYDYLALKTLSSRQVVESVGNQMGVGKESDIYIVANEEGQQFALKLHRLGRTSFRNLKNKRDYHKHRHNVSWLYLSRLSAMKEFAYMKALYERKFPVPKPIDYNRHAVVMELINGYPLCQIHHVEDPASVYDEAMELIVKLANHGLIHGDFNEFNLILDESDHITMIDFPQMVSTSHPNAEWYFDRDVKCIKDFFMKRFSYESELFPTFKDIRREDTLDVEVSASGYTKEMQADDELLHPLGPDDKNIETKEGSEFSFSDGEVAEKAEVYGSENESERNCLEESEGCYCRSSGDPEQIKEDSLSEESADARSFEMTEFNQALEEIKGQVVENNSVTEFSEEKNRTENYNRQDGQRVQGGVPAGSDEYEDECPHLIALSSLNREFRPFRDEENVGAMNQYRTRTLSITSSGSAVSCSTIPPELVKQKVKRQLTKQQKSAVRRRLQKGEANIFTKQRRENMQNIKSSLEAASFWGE
T9 sequence (O94804 whole entry): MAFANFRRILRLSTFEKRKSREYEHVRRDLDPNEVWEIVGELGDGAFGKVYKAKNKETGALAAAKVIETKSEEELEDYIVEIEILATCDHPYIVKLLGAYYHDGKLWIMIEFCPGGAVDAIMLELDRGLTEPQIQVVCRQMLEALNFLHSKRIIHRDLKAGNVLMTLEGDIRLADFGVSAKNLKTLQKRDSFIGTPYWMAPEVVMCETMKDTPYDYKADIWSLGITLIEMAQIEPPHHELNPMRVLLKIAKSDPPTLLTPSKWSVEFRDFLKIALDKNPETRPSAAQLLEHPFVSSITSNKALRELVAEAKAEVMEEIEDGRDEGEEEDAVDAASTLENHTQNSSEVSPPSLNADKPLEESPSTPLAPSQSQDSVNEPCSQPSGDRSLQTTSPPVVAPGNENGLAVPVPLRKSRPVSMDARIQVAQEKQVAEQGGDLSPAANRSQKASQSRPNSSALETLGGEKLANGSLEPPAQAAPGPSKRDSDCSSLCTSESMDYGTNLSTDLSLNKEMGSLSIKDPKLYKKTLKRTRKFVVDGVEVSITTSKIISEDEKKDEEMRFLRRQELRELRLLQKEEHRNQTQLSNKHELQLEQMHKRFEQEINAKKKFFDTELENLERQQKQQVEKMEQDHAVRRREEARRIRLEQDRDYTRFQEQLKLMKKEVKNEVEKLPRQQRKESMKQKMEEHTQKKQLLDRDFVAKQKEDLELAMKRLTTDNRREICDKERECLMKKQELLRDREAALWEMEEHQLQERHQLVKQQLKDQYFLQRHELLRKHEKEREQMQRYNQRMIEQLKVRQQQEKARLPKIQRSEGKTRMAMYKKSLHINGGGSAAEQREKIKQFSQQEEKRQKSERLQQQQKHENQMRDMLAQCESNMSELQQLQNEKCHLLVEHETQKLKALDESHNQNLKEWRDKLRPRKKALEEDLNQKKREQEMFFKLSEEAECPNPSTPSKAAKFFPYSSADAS
T10 sequence (Q96SB4 whole entry): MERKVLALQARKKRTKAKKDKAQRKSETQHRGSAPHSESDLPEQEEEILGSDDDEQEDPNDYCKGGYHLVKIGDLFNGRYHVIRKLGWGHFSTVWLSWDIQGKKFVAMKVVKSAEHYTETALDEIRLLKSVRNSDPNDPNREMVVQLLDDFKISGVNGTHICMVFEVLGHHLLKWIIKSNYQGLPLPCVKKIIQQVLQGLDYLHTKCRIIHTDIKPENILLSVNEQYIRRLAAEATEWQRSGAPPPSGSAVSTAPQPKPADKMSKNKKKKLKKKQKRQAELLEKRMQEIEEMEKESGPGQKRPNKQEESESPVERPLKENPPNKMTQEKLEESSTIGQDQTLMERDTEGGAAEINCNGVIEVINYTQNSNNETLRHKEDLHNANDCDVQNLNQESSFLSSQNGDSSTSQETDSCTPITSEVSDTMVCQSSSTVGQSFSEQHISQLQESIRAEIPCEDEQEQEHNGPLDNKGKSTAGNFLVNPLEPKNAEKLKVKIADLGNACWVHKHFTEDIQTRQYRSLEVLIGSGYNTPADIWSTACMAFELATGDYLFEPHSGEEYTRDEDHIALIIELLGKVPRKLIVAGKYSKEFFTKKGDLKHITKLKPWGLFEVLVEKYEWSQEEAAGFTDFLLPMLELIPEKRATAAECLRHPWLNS
T1 sequence (O96013 whole entry): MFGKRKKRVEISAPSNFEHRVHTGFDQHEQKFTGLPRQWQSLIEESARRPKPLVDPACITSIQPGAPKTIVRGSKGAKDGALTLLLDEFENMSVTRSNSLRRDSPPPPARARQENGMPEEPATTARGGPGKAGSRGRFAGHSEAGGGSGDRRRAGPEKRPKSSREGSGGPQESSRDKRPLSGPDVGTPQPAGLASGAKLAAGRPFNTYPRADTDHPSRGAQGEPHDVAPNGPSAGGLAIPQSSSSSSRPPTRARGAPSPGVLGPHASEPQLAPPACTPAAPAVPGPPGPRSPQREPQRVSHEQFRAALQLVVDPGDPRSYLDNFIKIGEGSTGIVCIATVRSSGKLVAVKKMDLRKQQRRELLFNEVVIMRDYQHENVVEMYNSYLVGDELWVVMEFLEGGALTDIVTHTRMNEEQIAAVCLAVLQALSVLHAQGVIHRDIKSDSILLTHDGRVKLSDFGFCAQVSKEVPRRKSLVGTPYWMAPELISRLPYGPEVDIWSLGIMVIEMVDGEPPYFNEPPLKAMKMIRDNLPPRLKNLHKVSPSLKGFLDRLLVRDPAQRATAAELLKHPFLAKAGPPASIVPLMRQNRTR
T5 sequence (Q14012 whole entry): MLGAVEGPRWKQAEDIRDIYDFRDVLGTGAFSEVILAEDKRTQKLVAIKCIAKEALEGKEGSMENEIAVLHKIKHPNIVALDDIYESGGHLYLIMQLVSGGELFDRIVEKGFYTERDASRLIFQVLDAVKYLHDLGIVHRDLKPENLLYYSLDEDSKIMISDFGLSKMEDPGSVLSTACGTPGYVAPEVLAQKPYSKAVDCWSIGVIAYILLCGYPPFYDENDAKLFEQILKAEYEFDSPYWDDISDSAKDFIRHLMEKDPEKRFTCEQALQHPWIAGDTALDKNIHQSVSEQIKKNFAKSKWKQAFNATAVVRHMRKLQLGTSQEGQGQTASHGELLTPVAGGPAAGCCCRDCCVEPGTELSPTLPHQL

## N#CCc1ccc(Nc2nc(NCCCN)cc(Nc3cc(C4CC4)[nH]n3)n2)cc1 [KAM]
PAK4; 0.001 uM KAM
  median Log10 fold change: -0.02305
PAK4; 0.01 uM KAM
  median Log10 fold change: -0.006782
PAK4; 0.1 uM KAM
  median Log10 fold change: -0.1812
PAK4; 1 uM KAM
  median Log10 fold change: -0.403
PAK4; 10 uM KAM
  median Log10 fold change: -0.4884
PAK4; [1]
  IC50: 527 nM
EPHA2; [2]
  IC50: > 10000 nM
EPHA2; relative to 0 uM KAM = 0
  0.001 uM KAM: -0.04778
  0.01 uM KAM: 0.0608
  0.1 uM KAM: 0.1233
  1 uM KAM: 0.3139
  10 uM KAM: 0.0956
PLK4; 0.001 uM KAM
  median Log10 fold change: -0.0157
PLK4; 0.01 uM KAM
  median Log10 fold change: 0.006981
PLK4; 0.1 uM KAM
  median Log10 fold change: -0.1724
PLK4; 1 uM KAM
  median Log10 fold change: -0.3044
PLK4; 10 uM KAM
  median Log10 fold change: -0.3267
PLK4; [1]
  IC50: 1400 nM
FYN; 0.001 uM KAM
  median Log10 fold change: -0.01373
FYN; 0.01 uM KAM
  median Log10 fold change: 0.006068
FYN; 0.1 uM KAM
  median Log10 fold change: -0.1646
FYN; 1 uM KAM
  median Log10 fold change: -0.3588
FYN; 10 uM KAM
  median Log10 fold change: -0.4538
FYN; [1]
  IC50: 754 nM
CAMK1; [2]
  IC50: 6470 nM
CAMK1; relative to 0 uM KAM = 0
  0.001 uM KAM: -0.0406
  0.01 uM KAM: 0.01937
  0.1 uM KAM: -0.06624
  1 uM KAM: -0.1636
  10 uM KAM: -0.3114
NTRK1; 0.001 uM KAM
  median Log10 fold change: -0.002125
NTRK1; 0.01 uM KAM
  median Log10 fold change: -0.003481
NTRK1; 0.1 uM KAM
  median Log10 fold change: -0.123
NTRK1; 1 uM KAM
  median Log10 fold change: -0.3463
NTRK1; 10 uM KAM
  median Log10 fold change: -0.5086
NTRK1; [1]
  IC50: 869 nM
RIOK2; 0.001 uM KAM
  median Log10 fold change: -0.01457
RIOK2; 0.01 uM KAM
  median Log10 fold change: -0.03291
RIOK2; 0.1 uM KAM
  median Log10 fold change: -0.138
RIOK2; 1 uM KAM
  median Log10 fold change: -0.3574
RIOK2; 10 uM KAM
  median Log10 fold change: -0.5027
RIOK2; [1]
  IC50: 774 nM
PKD1; [2]
  IC50: > 10000 nM
PKD1; relative to 0 uM KAM = 0
  0.001 uM KAM: -0.05857
  0.01 uM KAM: 0.006072
  0.1 uM KAM: -0.01241
  1 uM KAM: -0.0439
  10 uM KAM: 0.04844
STK10; 0.001 uM KAM
  median Log10 fold change: -0.02902
STK10; 0.01 uM KAM
  median Log10 fold change: -0.03253
STK10; 0.1 uM KAM
  median Log10 fold change: -0.2078
STK10; 1 uM KAM
  median Log10 fold change: -0.4135
STK10; 10 uM KAM
  median Log10 fold change: -0.5057
STK10; [1]
  IC50: 404 nM
SRPK1; [2]
  IC50: > 10000 nM
SRPK1; relative to 0 uM KAM = 0
  0.001 uM KAM: -0.01052
  0.01 uM KAM: -0.04054
  0.1 uM KAM: 0.02779
  1 uM KAM: -0.002878
  10 uM KAM: -0.01305
